In ChEMBL document CHEMBL3751830, “Design and discovery of new pyrimidine coupled nitrogen aromatic rings as chelating groups of JMJD3 inhibitors” (Bioorg Med Chem Lett, 2016):
The source made the active and inactive calls. The calls are words filed in the database; no cut-off is given here.

Key:
[1] = molecular target: T1, Lysine-specific demethylase 6B (Homo sapiens, UniProt O15054)
Description: Inhibition of JMJD3 (unknown origin) using biotinylated H3K27me3 peptide as substrate after 1 hr by AlphaLISA assay

[2] = molecular target: T1, Lysine-specific demethylase 6B; assay: Inhibition of JMJD3 (unknown origin) using biotinylated H3K27me3 peptide as substrate at 10 uM after 1 hr by AlphaLISA assay
[3] = Intrinsic clearance in human liver microsomes at 1 uM up to 30 mins by LC/MS/MS analysis; format: ADME; settings: read-out: CLH
CYP2D6 = CYP2D6 (Homo sapiens, UniProt P10635); assay: Inhibition of CYP2D6 in human liver microsomes at 10 uM after 20 mins; format: ADME
CYP1A2 = molecular target: T2, CYP1A2 (Homo sapiens, UniProt P05177); assay: Inhibition of CYP1A2 in human liver microsomes at 10 uM after 20 mins; format: ADME
T2 sequence (P05177 whole entry): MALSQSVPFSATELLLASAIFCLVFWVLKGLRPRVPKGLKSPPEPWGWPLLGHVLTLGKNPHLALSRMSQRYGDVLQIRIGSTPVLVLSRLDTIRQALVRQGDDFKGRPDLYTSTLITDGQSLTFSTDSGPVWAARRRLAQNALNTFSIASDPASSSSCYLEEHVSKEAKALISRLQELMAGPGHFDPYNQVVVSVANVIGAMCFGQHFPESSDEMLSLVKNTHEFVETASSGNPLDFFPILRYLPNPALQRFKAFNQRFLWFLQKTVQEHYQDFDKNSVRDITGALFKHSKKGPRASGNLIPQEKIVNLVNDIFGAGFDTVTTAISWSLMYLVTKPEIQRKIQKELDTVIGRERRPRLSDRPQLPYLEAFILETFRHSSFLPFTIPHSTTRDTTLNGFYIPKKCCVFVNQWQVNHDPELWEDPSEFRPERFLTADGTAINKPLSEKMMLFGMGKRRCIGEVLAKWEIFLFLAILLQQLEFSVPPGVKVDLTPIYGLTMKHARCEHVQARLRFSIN

CYP3A4 = CYP3A4 (Homo sapiens, UniProt P08684); assay: in vitro; settings: liver microsomes
Description: Inhibition of CYP3A4 in human liver microsomes at 10 uM after 20 mins

CYP2C19 = CYP2C19 (Homo sapiens, UniProt P33261); assay: Inhibition of CYP2C19 in human liver microsomes at 10 uM after 20 mins; format: ADME
[4] = Half life in human liver microsomes at 1 uM by LC/MS/MS analysis; format: ADME
CYP2C9 = CYP2C9 (Homo sapiens, UniProt P11712); assay: Inhibition of CYP2C9 in human liver microsomes at 10 uM after 20 mins; format: ADME
RAW264.7 [5] = assay: Inhibition of LPS-induced TNFalpha production in mouse RAW264.7 cells 0.82 uM after 24 hrs by ELISA; format: functional, cell-based
RAW264.7 [6] = assay: Inhibition of LPS-induced TNFalpha production in mouse RAW264.7 cells after 24 hrs by ELISA; format: functional, cell-based

T1 sequence (O15054 whole entry): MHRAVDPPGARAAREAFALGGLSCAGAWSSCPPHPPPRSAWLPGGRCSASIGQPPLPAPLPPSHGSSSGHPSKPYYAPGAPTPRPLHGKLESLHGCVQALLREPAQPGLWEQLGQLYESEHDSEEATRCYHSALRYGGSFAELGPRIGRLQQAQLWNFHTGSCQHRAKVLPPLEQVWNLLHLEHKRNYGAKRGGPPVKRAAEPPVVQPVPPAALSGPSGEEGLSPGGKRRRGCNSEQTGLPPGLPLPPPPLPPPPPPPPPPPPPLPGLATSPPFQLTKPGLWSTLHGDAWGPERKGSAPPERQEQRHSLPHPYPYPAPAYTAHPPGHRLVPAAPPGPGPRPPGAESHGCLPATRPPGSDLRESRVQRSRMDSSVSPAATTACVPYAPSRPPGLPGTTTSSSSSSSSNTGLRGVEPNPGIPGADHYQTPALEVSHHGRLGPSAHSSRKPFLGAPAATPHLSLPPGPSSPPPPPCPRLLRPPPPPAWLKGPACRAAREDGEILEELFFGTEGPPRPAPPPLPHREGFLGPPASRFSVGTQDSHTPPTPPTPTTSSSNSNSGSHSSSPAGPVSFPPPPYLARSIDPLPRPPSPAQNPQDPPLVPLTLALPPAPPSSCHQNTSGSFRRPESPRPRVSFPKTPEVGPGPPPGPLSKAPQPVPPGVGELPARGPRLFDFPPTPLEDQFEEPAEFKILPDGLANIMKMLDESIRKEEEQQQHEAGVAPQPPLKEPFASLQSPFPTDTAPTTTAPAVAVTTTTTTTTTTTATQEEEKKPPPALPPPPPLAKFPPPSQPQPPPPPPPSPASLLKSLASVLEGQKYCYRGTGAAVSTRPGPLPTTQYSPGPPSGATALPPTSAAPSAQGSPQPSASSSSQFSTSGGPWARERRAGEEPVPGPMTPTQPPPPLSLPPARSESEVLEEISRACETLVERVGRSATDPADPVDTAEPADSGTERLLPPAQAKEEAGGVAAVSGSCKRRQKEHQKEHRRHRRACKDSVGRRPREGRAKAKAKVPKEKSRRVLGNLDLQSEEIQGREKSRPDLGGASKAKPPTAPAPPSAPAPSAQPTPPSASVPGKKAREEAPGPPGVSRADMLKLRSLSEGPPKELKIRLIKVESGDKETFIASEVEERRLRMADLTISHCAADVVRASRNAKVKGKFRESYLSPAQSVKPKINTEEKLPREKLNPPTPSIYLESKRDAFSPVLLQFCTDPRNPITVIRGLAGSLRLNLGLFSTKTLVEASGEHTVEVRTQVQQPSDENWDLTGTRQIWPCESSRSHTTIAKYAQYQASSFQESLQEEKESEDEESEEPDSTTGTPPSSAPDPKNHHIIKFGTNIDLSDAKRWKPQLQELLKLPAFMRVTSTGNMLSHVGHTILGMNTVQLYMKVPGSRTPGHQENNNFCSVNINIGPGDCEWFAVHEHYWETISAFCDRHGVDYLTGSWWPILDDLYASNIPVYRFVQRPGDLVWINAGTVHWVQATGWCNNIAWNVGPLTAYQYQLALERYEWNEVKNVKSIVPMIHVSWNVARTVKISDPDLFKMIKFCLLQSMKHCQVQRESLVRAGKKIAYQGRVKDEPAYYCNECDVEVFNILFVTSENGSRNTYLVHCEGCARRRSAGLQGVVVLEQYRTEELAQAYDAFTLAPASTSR
CYP2D6, sequence (P10635 whole entry): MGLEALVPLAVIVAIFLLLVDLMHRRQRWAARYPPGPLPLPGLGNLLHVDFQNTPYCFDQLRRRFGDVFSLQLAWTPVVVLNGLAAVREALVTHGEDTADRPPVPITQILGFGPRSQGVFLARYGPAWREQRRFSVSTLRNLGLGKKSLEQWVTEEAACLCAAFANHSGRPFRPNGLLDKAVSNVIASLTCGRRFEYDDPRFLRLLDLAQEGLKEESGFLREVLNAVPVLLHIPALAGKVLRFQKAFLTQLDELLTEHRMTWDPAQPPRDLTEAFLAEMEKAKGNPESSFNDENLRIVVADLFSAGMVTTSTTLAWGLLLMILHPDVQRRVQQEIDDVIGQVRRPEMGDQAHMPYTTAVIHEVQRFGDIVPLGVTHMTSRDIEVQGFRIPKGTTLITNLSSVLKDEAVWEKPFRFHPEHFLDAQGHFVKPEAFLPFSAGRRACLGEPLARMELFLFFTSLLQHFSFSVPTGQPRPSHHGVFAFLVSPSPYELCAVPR
CYP2C19, sequence (P33261 whole entry): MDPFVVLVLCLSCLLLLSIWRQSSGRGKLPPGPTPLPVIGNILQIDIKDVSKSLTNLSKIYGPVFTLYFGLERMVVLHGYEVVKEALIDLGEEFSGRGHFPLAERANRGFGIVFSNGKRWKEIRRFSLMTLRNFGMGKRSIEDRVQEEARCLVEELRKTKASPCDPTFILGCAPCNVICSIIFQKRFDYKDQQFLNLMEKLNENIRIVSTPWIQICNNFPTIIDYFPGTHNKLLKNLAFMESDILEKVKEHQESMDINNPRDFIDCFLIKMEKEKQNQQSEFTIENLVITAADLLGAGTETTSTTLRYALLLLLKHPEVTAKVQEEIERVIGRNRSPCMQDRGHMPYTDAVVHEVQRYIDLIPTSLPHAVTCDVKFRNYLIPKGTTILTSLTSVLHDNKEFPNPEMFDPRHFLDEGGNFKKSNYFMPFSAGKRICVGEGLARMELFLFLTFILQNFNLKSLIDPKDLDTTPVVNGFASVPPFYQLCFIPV
CYP2C9, sequence (P11712 whole entry): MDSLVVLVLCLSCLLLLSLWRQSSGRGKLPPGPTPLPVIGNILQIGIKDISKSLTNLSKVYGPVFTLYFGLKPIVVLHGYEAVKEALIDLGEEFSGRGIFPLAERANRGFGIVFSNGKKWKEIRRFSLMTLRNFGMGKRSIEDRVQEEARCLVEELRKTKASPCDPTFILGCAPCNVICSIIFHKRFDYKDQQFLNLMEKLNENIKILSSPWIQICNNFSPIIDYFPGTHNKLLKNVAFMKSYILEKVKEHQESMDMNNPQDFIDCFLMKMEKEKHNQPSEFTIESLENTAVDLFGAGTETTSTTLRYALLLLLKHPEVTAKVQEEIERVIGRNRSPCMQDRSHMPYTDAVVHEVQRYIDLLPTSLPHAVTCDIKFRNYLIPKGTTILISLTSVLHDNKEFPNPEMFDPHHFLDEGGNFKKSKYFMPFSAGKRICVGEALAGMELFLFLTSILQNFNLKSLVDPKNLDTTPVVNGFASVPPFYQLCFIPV
CYP3A4, sequence (P08684 whole entry): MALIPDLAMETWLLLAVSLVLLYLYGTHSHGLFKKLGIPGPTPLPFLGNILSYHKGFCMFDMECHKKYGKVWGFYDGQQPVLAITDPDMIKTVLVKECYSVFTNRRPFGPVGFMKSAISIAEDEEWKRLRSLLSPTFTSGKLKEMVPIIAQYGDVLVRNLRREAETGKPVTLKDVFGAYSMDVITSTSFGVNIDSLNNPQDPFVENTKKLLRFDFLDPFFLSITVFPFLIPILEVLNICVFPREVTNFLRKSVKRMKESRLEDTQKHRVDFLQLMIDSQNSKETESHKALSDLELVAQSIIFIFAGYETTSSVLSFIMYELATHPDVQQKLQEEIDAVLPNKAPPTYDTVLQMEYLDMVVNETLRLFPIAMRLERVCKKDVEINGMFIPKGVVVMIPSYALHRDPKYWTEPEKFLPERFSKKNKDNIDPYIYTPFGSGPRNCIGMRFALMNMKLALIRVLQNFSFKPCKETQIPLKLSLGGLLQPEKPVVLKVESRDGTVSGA

## O=C(O)CCNc1nc(N2CCN(c3ccccn3)CC2)cc(-n2cccn2)n1
[1]
  IC50: 1000 nM

## COc1ccccc1N1CCN(c2cc(-c3nccs3)nc(NCCC(=O)O)n2)CC1
[1]
  IC50: 2100 nM

## Cc1ccccc1C1CCN(c2cc(-c3nccs3)nc(NCCC(=O)O)n2)CC1
[2]
  inhibition: 87.5%

## CN(Cc1ccco1)c1cc(-c2nccs2)nc(NCCC(=O)O)n1
[2]
  inhibition: 43.9%

## O=C(O)CCNc1nc(N2CCN(c3ccccn3)CC2)cc(-n2nccn2)n1
[1]
  IC50: 1300 nM

## COc1ccccc1N1CCN(c2cc(-n3nccn3)nc(NCCC(=O)O)n2)CC1
[1]
  IC50: > 20000 nM

## CC(C)NC(=O)CN1CCN(c2cc(-c3nccs3)nc(NCCC(=O)O)n2)CC1
[2]
  inhibition: -5.1%

## O=C(O)CCNc1nc(-c2nccs2)cc(N2CCc3ccccc3C2)n1
[1]
  IC50: 990 nM

## O=C(O)CCNc1nc(-c2nccs2)cc(N2CCc3ccccc3CC2)n1
[3]
  microsomal CLint at 1 µM: 5 µL/min/mg
CYP2D6
  inhibition at 20 min, 10 µM: 8%
CYP1A2
  inhibition at 20 min, 10 µM: 9%
CYP3A4
  inhibition at 20 min, 10 µM: 12%
CYP2C19
  inhibition at 20 min, 10 µM: 13%
[4]
  half-life at 1 µM: 4.44 h
[1]
  IC50: 200 nM
CYP2C9
  inhibition at 20 min, 10 µM: 9%

## O=C(O)CCNc1nc(-c2nccs2)cc(N2CCC(N3CCCC3)CC2)n1
[2]
  inhibition: -8.4%

## CC(C)(C)OC(=O)NC1CCN(c2cc(-c3nccs3)nc(NCCC(=O)O)n2)CC1
[2]
  inhibition: 9.8%

## O=C(O)CCNc1nc(N2CCN(c3ccc(F)cc3)CC2)cc(-n2nccn2)n1
[1]
  IC50: 2600 nM

## O=C(O)CCNc1nc(N2CCN(c3ccc(F)cc3)CC2)cc(-n2cc3ccccc3n2)n1
[1]
  IC50: 5800 nM

## CCOC(=O)CCNc1nc(N2CCc3ccccc3CC2)cc(-n2nccn2)n1
RAW264.7 [5]
  inhibition: Active
RAW264.7 [6]
  inhibition: Dose-dependent effect

## O=C(O)CCNc1nc(N2CCc3ccccc3C2)cc(-n2cccn2)n1
[1]
  IC50: 490 nM

## Cc1ccccc1CNc1cc(-c2nccs2)nc(NCCC(=O)O)n1
[2]
  inhibition: -0.6%

## O=C(O)CCNc1nc(N2CCC(c3ccccc3)CC2)cc(-n2cc3ccccc3n2)n1
[2]
  inhibition: 30%

## O=C(O)CCNc1nc(N2CCC(c3ccccc3)CC2)cc(-n2ccnn2)n1
[1]
  IC50: 2100 nM

## O=C(O)CCNc1nc(-c2nccs2)cc(N2CCN(c3ccc(F)cc3)CC2)n1
[1]
  IC50: 600 nM

## CCOC(=O)CCNc1nc(N2CCc3ccccc3CC2)cc(-n2cccn2)n1
RAW264.7 [5]
  inhibition: Active
RAW264.7 [6]
  inhibition: Dose-dependent effect

## COc1cc(CNc2cc(-c3nccs3)nc(NCCC(=O)O)n2)cc(OC)c1
[2]
  inhibition: -8.7%

## O=C(O)CCNc1nc(N2CCc3ccccc3CC2)cc(-n2cccn2)n1
CYP2D6
  inhibition at 20 min, 10 µM: 5%
CYP1A2
  inhibition at 20 min, 10 µM: 5%
CYP3A4
  inhibition at 20 min, 10 µM: 3%
CYP2C19
  inhibition at 20 min, 10 µM: 3%
[4]
  half-life at 1 µM: > 11.6 h
[1]
  IC50: 150 nM
CYP2C9
  inhibition at 20 min, 10 µM: 5%

## CCOC(=O)CCNc1nc(-c2nccs2)cc(N2CCc3ccccc3CC2)n1
RAW264.7 [5]
  inhibition: Active
RAW264.7 [6]
  inhibition: Active

## O=C(O)CCNc1nc(N2CCN(c3ccc(Cl)c(Cl)c3)CC2)cc(-n2cc3ccccc3n2)n1
[1]
  IC50: > 100000 nM

## O=C(O)CCNc1nc(N2CCN(c3ccc(Cl)c(Cl)c3)CC2)cc(-n2nccn2)n1
[1]
  IC50: 1400 nM

## O=C(O)CCNc1nc(N2CCc3ccccc3C2)cc(-n2ccnn2)n1
[1]
  IC50: 1400 nM

## CC(=O)N1CCN(c2cc(-c3nccs3)nc(NCCC(=O)O)n2)CC1
[2]
  inhibition: 32.9%

## O=C(O)CCNc1nc(N2CCc3ccccc3C2)cc(-n2nccn2)n1
[1]
  IC50: 1500 nM

## CCOC(=O)CCNc1cc(N2CCc3ccccc3CC2)nc(-c2ccccn2)n1
RAW264.7 [5]
  inhibition: Active
RAW264.7 [6]
  inhibition: Active

## O=C(O)CCNc1nc(N2CCN(c3ccc(Cl)c(Cl)c3)CC2)cc(-n2ccnn2)n1
[2]
  inhibition: 74%

## O=C(O)CCNc1nc(N2CCc3ccccc3CC2)cc(-n2nccn2)n1
[3]
  microsomal CLint at 1 µM: 1 µL/min/mg
CYP2D6
  inhibition at 20 min, 10 µM: 6%
CYP1A2
  inhibition at 20 min, 10 µM: 4%
CYP3A4
  inhibition at 20 min, 10 µM: 7%
CYP2C19
  inhibition at 20 min, 10 µM: 4%
[4]
  half-life at 1 µM: 38.5 h
[1]
  IC50: 270 nM
CYP2C9
  inhibition at 20 min, 10 µM: 4%

## O=C(O)CCNc1nc(NC2CCN(Cc3ccccc3)CC2)cc(-c2nccs2)n1
[2]
  inhibition: 10%

## O=C(O)CCNc1cc(N2CCc3ccccc3CC2)nc(-c2ccccn2)n1
[3]
  microsomal CLint at 1 µM: 3 µL/min/mg
CYP2D6
  inhibition at 20 min, 10 µM: 20%
CYP1A2
  inhibition at 20 min, 10 µM: 10%
CYP2C19
  inhibition at 20 min, 10 µM: 16%
[4]
  half-life at 1 µM: 8.25 h
CYP2C9
  inhibition at 20 min, 10 µM: 5%

## O=C(O)CCNc1nc(N2CCc3ccccc3CC2)cc(-n2cc3ccccc3n2)n1
[3]
  microsomal CLint at 1 µM: 5 µL/min/mg
CYP2D6
  inhibition at 20 min, 10 µM: 0%
CYP1A2
  inhibition at 20 min, 10 µM: 8%
CYP3A4
  inhibition at 20 min, 10 µM: 4%
CYP2C19
  inhibition at 20 min, 10 µM: 11%
[4]
  half-life at 1 µM: 4.28 h
[1]
  IC50: 2200 nM
CYP2C9
  inhibition at 20 min, 10 µM: 17%

## O=C(O)CCNc1nc(N2CCN(c3ccc(Cl)c(Cl)c3)CC2)cc(-n2cccn2)n1
[1]
  IC50: 740 nM

## COc1ccccc1N1CCN(c2cc(-n3cccn3)nc(NCCC(=O)O)n2)CC1
[1]
  IC50: > 20000 nM

## O=C(O)CCNc1nc(-c2nccs2)cc(N2CCN(c3ccccn3)CC2)n1
[1]
  IC50: 900 nM

## O=C(O)CCNc1nc(NC2Cc3ccccc3C2)cc(-c2nccs2)n1
[2]
  inhibition: 21.1%

## O=C(O)CCNc1nc(NCc2cc(C(F)(F)F)cc(C(F)(F)F)c2)cc(-c2nccs2)n1
[2]
  inhibition: 1%

## O=C(O)CCNc1nc(-c2nccs2)cc(N2CCC(c3ccccc3)CC2)n1
[1]
  IC50: 1200 nM

## O=C(O)CCNc1nc(N2CCc3ccccc3C2)cc(-n2cc3ccccc3n2)n1
[1]
  IC50: 6100 nM

## O=C(O)CCNc1nc(N2CCN(c3ccc(F)cc3)CC2)cc(-n2ccnn2)n1
[1]
  IC50: 10000 nM

## O=C(O)CCNc1nc(N2CCN(c3ccc(F)cc3)CC2)cc(-n2cccn2)n1
[1]
  IC50: 550 nM

## O=C(O)CCNc1nc(N2CCC(c3ccccc3)CC2)cc(-n2cccn2)n1
[1]
  IC50: 750 nM

## O=C(O)CCNc1nc(-c2nccs2)cc(N2CCN(c3ccc(Cl)c(Cl)c3)CC2)n1
[1]
  IC50: 940 nM

## O=C(O)CCNc1nc(N2CCC(c3ccccc3)CC2)cc(-n2nccn2)n1
[1]
  IC50: 1200 nM

## CCOC(=O)CCNc1nc(N2CCc3ccccc3CC2)cc(-n2ccnn2)n1
RAW264.7 [5]
  inhibition: Active
RAW264.7 [6]
  inhibition: Active

## O=C(O)CCNc1nc(N2CCc3ccccc3CC2)cc(-n2ccnn2)n1
CYP2D6
  inhibition at 20 min, 10 µM: 6%
CYP1A2
  inhibition at 20 min, 10 µM: 1%
CYP3A4
  inhibition at 20 min, 10 µM: 7%
CYP2C19
  inhibition at 20 min, 10 µM: 8%
[4]
  half-life at 1 µM: > 11.6 h
[1]
  IC50: 210 nM
CYP2C9
  inhibition at 20 min, 10 µM: 1%

## O=C(O)CCNc1nc(N2CCN(c3ccccn3)CC2)cc(-n2cc3ccccc3n2)n1
[2]
  inhibition: 54%
